Measured values as given in patent US8680259B2, “Method and compositions for the identification of agents that have a potential effect against chronic inflammatory diseases” (Universität Leipzig, priority 2010, dated 2014).

How the values were obtained:
primary CD14+ monocytes = test: IL-1β production of monocytes stimulated with increased extracellular Ca2+ plus TLR ligand; assay type: cell-based, human
Procedure: FIGS. 3c and 3d show IL-1β release of primary CD14^+ monocytes in response to increasing extracellular calcium concentration alone (c) or to increased [Ca^2+] in combination with LPS (100 ng/ml) (d) after 16 h of stimulation. The bar underneath the x axis represents the physiological range of the extracellular ionized Ca^2+ concentration (1.2 mM).
The following TLR ligands (human TLR1-9 Agonist Kit, InvivoGen) were used at the following concentrations: TLR1/2 agonist—Pam3CSK4 (1 μg/ml), TLR2 agonist—heat-killed preparation of Listeria monocytogenes (10^8 cells/ml), TLR3 agonist—Poly(I:C) (10 μg/ml), TLR4 agonist—E. coli K12 LPS (100 ng/ml), TLR5 agonist—S. typhimurium flagellin (1 μg/ml), TLR6/2 agonist—FSL1 (1 μg/ml), TLR7 agonist—Imiquimod (1 μg/ml), TLR8 agonist—ssRNA40 (1 μg/ml) and TLR9 agonist—CpG ODN2006 (5 μM). […]
In all experiments shown in FIGS. 3 and 4, IL-1β concentrations were determined in the supernatant by ELISA.
Human and murine IL-1β were measured by commercially available enzyme-immunoassay following the manufacturer's protocol. […]
LPS (Escherichia coli 0111:B4 ultrapure, 100 ng/ml, Invivogen) was used at a concentration of 100 ng/ml. […] Final Ca^2+ ion concentrations in the media were measured after anaerobic sampling (sealed blood gas syringes were completely filled under an CO2 atmosphere, and were closed with caps to avoid loss of CO2) on an ABL 730 (Radiometer). […]

GPRC6A = GPRC6A (Mus musculus, UniProt Q8K4Z6); details: wild type mice; Aluminum Lactate 0.3 mg/100 ml with Carrageenan 1 g/100 ml vs Carrageenan alone; p<0.001
GPRC6A, sequence (Q8K4Z6 21-928): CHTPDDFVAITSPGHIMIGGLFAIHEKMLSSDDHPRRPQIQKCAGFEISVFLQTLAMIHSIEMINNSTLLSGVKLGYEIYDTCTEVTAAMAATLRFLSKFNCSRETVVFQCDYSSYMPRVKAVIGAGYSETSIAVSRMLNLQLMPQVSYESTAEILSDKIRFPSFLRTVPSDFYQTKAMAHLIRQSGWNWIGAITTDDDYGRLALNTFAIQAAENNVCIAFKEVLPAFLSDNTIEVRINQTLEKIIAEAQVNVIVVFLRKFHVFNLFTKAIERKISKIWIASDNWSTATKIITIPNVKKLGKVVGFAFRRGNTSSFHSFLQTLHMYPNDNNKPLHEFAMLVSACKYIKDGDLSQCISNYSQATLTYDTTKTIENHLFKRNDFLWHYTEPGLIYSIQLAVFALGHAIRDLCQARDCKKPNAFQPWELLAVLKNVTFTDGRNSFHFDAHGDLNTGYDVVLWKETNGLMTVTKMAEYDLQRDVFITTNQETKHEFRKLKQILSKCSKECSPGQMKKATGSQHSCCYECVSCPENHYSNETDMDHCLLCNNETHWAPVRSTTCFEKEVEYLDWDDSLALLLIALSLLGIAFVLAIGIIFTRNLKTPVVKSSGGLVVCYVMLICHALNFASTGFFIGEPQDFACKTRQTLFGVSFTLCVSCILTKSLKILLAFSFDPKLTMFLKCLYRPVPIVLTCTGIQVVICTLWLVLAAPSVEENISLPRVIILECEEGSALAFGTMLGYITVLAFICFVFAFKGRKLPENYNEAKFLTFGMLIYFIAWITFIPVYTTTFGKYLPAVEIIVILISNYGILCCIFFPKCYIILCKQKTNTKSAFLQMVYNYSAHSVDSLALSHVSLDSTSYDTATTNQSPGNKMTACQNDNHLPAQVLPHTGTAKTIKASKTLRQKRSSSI

Molecule: [Ca+2].[Cl-].[Cl-] [Ca^2+, CaCl2]
- IL-1β production, factor of increase in comparison to endotoxin (LPS) alone (primary CD14+ monocytes; extracellular ionized Ca2+ in combination with LPS): 20

Molecule: Aluminum Lactate
- footpad swelling (GPRC6A): amplification of Carrageenan induced footpad swelling

Molecule: Tenascin: endogenous TLR ligand, extracellular matrix glycoprotein; Tenascin-C from Millipore
- IL-1β production (primary CD14+ monocytes; endogenous TLR ligand in combination with increased extracellular Ca2+ concentrations): comparable to the Ca^2+ plus LPS induced levels
